According to ChEMBL document CHEMBL1148081, “Corticatic acids A-C, antifungal acetylenic acids from the marine sponge, Petrosia corticata” (J Nat Prod, 1994):
The source made the active and inactive calls. No cut-off for these calls is given here.

System: Umbelopsis ramanniana
Assay: Antimicrobial activity against Mortierella ramanniana
Format: functional, organism-based

## C#CC(O)/C=C/CCCCCC#CC/C=C\CCCCCCCCCCC/C=C\C#CC(=O)O (configuration not stated)
  Activity: Active

## C#CC(O)/C=C/CCCCCC#CC/C=C\CCCCCCCCCCC/C=C/C#CC(=O)O (configuration not stated)
  Activity: Active
